Read-outs that look alike come from different tables or passages of the source.
Experiments:
inflammation = test: Anti-Inflammatory Effect (carrageenan-induced swelling of the hind foot); format: in vivo, Wister male rat; settings: po, rat, 3 hours after carrageenan, read-out: Suppressive Ratio; for inhibition in vivo at 50 mg/kg: 50 mg/kg p.o.
Description: A Wister male rat having the weight ranging from 120 to 150 g. was starved for 18 hours, and to this was then orally administered the test sample. After lapse of one hour, 0.05 ml. of 1% solution of carrageenan was administered through subcutaneous injection in the plantar surface of the right hind foot to produce inflammation. The volume of the right hind foot was measured prior to the injection of carrageenan and again at 3 hours after the administration through injection. The ratio of the increase of the foot volume was calculated to express in percent based on the measured values. The so calculated ratio was compared with the calculated ratio on the control data to give the dropsical swelling suppressive ratio.

blood pressure = test: Anti-Hypertensive Effect (spontaneously hipertensive rat); format: in vivo, male; settings: SHR
Description: To a spontaneously hipertensive rat (SHR), male, aged 20-30 weeks, blood pressure under contraction 150 mmHg. was orally administered the test sample. The mean blood pressure of the rat was measured under non-anesthetic conditions at 1, 3, 6 and 24 hours after the administration via cannula inserted into the main artery in the abdomen.

blood sugar level = test: Blood Sugar Level Lowering Effect (2-deoxy-D-glucose induced high blood sugar level); format: in vivo, ICR-JCL mouse, male; settings: po, mouse, 1 hour after 2-deoxy-D-glucose 500 mg/kg, read-out: Suppressive Ratio; for inhibition in vivo at 30 mg/kg: 30 mg/kg p.o.
Description: To a ICR-JCL mouse, male, having the weight ranging from 25 to 30 g. was orally administered the test sample and, after 15 minutes, 2-deoxy-D-glucose was administered into the cavity of the mouse in the amount of 500 mg/kg to induce a high blood sugar level. The blood was taken after 1 hour, and the blood sugar concentration was determined in the blood serum obtained upon centrifugation, by means of a commercially available test kit (trade name: Glucomesser, produced by Tokyo Zooki Kagaku Co., Ltd., Japan). The suppressive ratio was calculated based on the following equation. [formula] A: Blood sugar level of the positive control group B: Blood sugar level of the negative control group
C: Blood sugar level of the test sample administered group

[1] = system: Blood Platelet Aggregation; test: Blood Platelet Aggregation Suppressive Effect (collagen-induced, platelet rich plasma); format: cell-based, rabbit; settings: Oryctolagus cuniculus, 2 min, read-out: Suppressive Ratio
Description: A rabbit was starved for 18 hours, and the veinal blood was taken from the carotid artery of the rabbit. […] The mixture was centrifuged at 200 G for 15 minutes to collect the platelet rich plasma (PRP). The residual portion was further centrifuged at 2000 G for 15 minutes to collect the platelet poor plasma (PPP). Subsequently, 250 μl. of the PRP was placed in a cuvette, and the methanol solution containing the test sample of the concentration set forth in Table 4 was added. Incubation was carried out for 2 minutes, and a collagen solution was added to the incubated solution to result in the final concentration of 3 μg./ml. so as to induce aggregation. The condition of the aggregation was measured in the Aggregation Meter (available from Shenco Co., Ltd.) and recorded.
The suppressive ratio was calculated based on the following equation. [formula] A: Maximum aggregation ratio observed when a solvent only was added. B: Maximum aggregation ratio observed when the test sample was added.

ICR-JCL mouse = test: Acute Toxicity on Mouse; set-up: species or system male; settings: in vivo, po
Description: A ICR-JCL mouse, male, was starved for 18 hours, and to the mouse was orally administered the test sample suspended in 1% tragacantha solution. The condition was observed during one week after the administration and the LD50 was calculated.

[2] = Japanese Patent Provisional Publication No. 35-12079/1960; cited from earlier work
[3] = Japanese Patent Provisional Publication No. 35-12079/1960; cited from earlier work; remark: listed apart in the source
[4] = Biochem. & Biophys. Res. Commu., 34, 495 (1969); cited from earlier work
[5] = 100 μM, rabbit PRP, collagen 3 μg/ml

With `Nc1nc(N2CCN(Cc3ccccc3)CC2)nc2c1CCCC2` [Compound No. 3, 2-(4-Benzylpiperazino)-4-amino-5,6-tetramethylenepyrimidine] as the compound, how does the inhibition in vivo at 50 mg/kg (inflammation) read?
The inhibition in vivo at 50 mg/kg was 46%.

Which results are given for `Nc1nc(N2CCN(c3ccccn3)CC2)nc2c1CCCC2` [Compound No. 32, 2-[4-(2-Pyridyl)piperazino]-4-amino-5,6-tetramethylenepyrimidine]?
Change of Blood Pressure at 3 Hours after Administration (blood pressure; 50 mg/kg p.o.): -18 mmHg.; inhibition in vivo at 30 mg/kg (blood sugar level): 60.1%

Which inhibition at 100 µM [1] does the source give for `CC(=O)Oc1ccccc1C(=O)O` [Aspirin, reference compound] here?
Its inhibition at 100 µM is 100%.

For `Nc1nc(N2CCN(c3ccccc3)CC2)nc2c1CCCC2` [compound 28, 2-(4-Phenylpiperazino)-4-amino-5,6-tetramethylenepyrimidine], which inhibition in vivo at 50 mg/kg (inflammation) is on record?
Its inhibition in vivo at 50 mg/kg is 52.7%.

With `Nc1nc(N2CCNCC2)nc2c1CCC2` [Compound No. 54, 2-Piperazino-4-amino-5,6-trimethylenepyrimidine] as the compound, how does the inhibition in vivo at 30 mg/kg (blood sugar level) read?
Its inhibition in vivo at 30 mg/kg is 107%.

For `OCCNc1nc(N2CCNCC2)nc2c1CCCC2` [compound 51, 2-Piperazino-4-(2-hydroxyethyl)amino-5,6-tetramethylenepyrimidine], which inhibition at 100 µM [1, 5] is on record?
Its inhibition at 100 µM is 89.1%.

Which inhibition in vivo at 30 mg/kg (blood sugar level) does the source give for `Nc1nc(N2CCN(Cc3ccccc3)CC2)nc2c1CCC2` [Compound No. 56, 2-(4-Benzylpiperazino)-4-amino-5,6-trimethylenepyrimidine] here?
The inhibition in vivo at 30 mg/kg was 44.5%.

Which results are given for `Nc1nc(N2CCNCC2)nc2c1CCCC2` [Compound No. 1, 2-Piperazino-4-amino-5,6-tetramethylenepyrimidine]?
inhibition in vivo at 30 mg/kg (blood sugar level): 67.8%; inhibition at 100 µM [1, 5]: 100%

For `CN(C)c1nc(N2CCNCC2)nc2c1CCCC2` [compound 41, 2-Piperazino-4-dimethylamino-5,6-tetramethylenepyrimidine], which inhibition in vivo at 30 mg/kg (blood sugar level) is on record?
Its inhibition in vivo at 30 mg/kg is 50.8%.

What does the source list for `CNc1nc(N2CCNCC2)nc2c1CCCC2` [Compound No. 35, 2-Piperazino-4-methylamino-5,6-tetramethylenepyrimidine]?
inhibition in vivo at 30 mg/kg (blood sugar level): 77.4%; inhibition at 100 µM [1, 5]: 87.7%

For `Nc1nc(N2CCN(C(=O)C=Cc3ccccc3)CC2)nc2c1CCCC2` [Compound No. 10, 2-(4-Cinnamoylpiperazino)-4-amino-5,6-tetramethylenepyrimidine], which inhibition in vivo at 50 mg/kg (inflammation) is on record?
The inhibition in vivo at 50 mg/kg was 79.9%.

And the “Change of Blood Pressure at 3 Hours after Administration” value (shortened to “Change of Blood Pressure at 3 Hours”) (blood pressure; 25 mg/kg p.o.)?
Its value is -22 mmHg.

For `C=CCN1CCN(c2nc(N)c3c(n2)CCCC3)CC1` [Compound No. 4, 2-(4-Allylpiperazino)-4-amino-5,6-tetramethylenepyrimidine], which inhibition in vivo at 50 mg/kg (inflammation) is on record?
The inhibition in vivo at 50 mg/kg was 51.2%.

For `C1CCc2c(nc(N3CCNCC3)nc2N2CCCC2)C1` [compound 45, 2-Piperazino-4-pyrrolidino-5,6-tetramethylenepyrimidine], which inhibition at 30 µM ([1]; rabbit PRP, collagen 3 μg/ml) is on record?
Its inhibition at 30 µM is 72%.

For `Nc1nc(N2CCN(c3ccc(Cl)cc3)CC2)nc2c1CCCC2` [compound 29, 2-[4-(4-Chlorophenyl)piperazino]-4-amino-5,6-tetramethylenepyrimidine], which inhibition in vivo at 50 mg/kg (inflammation) is on record?
Its inhibition in vivo at 50 mg/kg is 46.8%.

And the inhibition in vivo at 10 mg/kg (blood sugar level; 10 mg/kg p.o.)?
The inhibition in vivo at 10 mg/kg was 49.1%.

With `O=CN1CCN(c2nc3c(c(N4CCOCC4)n2)CCCC3)CC1` [compound 47, 2-(4-Formylpiperazino)-4-morpholino-5,6-tetramethylenepyrimidine] as the compound, how does the inhibition at 30 µM ([1]; rabbit PRP, collagen 3 μg/ml) read?
Its inhibition at 30 µM is 100%.

Which inhibition at 30 µM ([1]; rabbit PRP, collagen 3 μg/ml) does the source give for `CN1CCN(c2nc3c(c(N4CCCC4)n2)CCCC3)CC1` [compound 46, 2-(4-Methylpiperazino)-4-pyrrolidino-5,6-tetramethylenepyrimidine] here?
The inhibition at 30 µM was 100%.

What does the source list for `C1CCc2c(nc(N3CCNCC3)nc2N2CCOCC2)C1` [compound 48, 2-Piperazino-4-morpholino-5,6-tetramethylenepyrimidine]?
inhibition in vivo at 30 mg/kg (blood sugar level): 95.9%; inhibition at 30 µM ([1]; rabbit PRP, collagen 3 μg/ml): 46%

With `Nc1nc(N2CCN(C(=O)Nc3ccccc3)CC2)nc2c1CCCC2` [Compound No. 18, 2-(4-Phenylcarbamoylpiperazino)-4-amino-5,6-tetramethylenepyrimidine] as the compound, how does the inhibition in vivo at 50 mg/kg (inflammation) read?
Its inhibition in vivo at 50 mg/kg is 33.8%.

And the “Change of Blood Pressure at 3 Hours” value (blood pressure; 50 mg/kg p.o.)?
Its value is -17 mmHg.

With `Nc1nc(N2CCN(C(=O)C=Cc3ccco3)CC2)nc2c1CCCC2` [Compound No. 14, 2-[4-{3-(Furan-2-yl)acryloyl}piperazino]-4-amino-5,6-tetramethylenepyrimidine] as the compound, how does the inhibition in vivo at 25 mg/kg (inflammation; 25 mg/kg p.o.) read?
Its inhibition in vivo at 25 mg/kg is 53.9%.

What about the inhibition in vivo at 30 mg/kg (blood sugar level) of the same compound?
Its inhibition in vivo at 30 mg/kg is 60.2%.

What does the source list for `CN1CCN(c2nc3c(c(N4CCOCC4)n2)CCCC3)CC1` [compound 49, 2-(4-Methylpiperazino)-4-morpholino-5,6-tetramethylenepyrimidine]?
inhibition at 30 µM ([1]; rabbit PRP, collagen 3 μg/ml): 95.2%; LD50 (ICR-JCL mouse): > 500 mg/kg

With `Nc1nc(N2CCN(C(=S)Nc3ccccc3)CC2)nc2c1CCCC2` [compound 23, 2-(Phenylthiocarbamoylpiperazino)-4-amino-5,6-tetramethylenepyrimidine] as the compound, how does the inhibition in vivo at 50 mg/kg (inflammation) read?
The inhibition in vivo at 50 mg/kg was 23.9%.

Which inhibition in vivo at 30 mg/kg (blood sugar level) does the source give for `Nc1nc(N2CCNCC2)nc2c1CCCCC2` [Compound No. 63, 2-Piperazino-4-amino-5,6-pentamethylenepyrimidine] here?
Its inhibition in vivo at 30 mg/kg is 78.9%.

What does the source list for `Nc1nc(N)c2c(n1)CCCC2` [2,4-diamino-5,6-tetramethylenepyrimidine]?
carcinostatic effect [2]: has a carcinostatic effect; antibacterial activity [3]: antibacterial activity; antagonism against pteridine [4]: has antagonism against pteridine

With `Nc1nc(N2CCN(C(=O)C=Cc3ccccc3[N+](=O)[O-])CC2)nc2c1CCCC2` [compound 11, 2-[4-(2-Nitrocinnamoyl)piperazino]-4-amino-5,6-tetramethylenepyrimidine] as the compound, how does the “Change of Blood Pressure at 3 Hours” value (blood pressure; 50 mg/kg p.o.) read?
Its value is -17 mmHg.

— patent publication US4352928A, “5,6-Alkylenepyrimidine derivative” (Mitsubishi Yuka Pharmaceutical Co., Ltd., priority 1979, dated 1982)
